Reference: publication PMC6010064, “Discovery of curcumin inspired sulfonamide derivatives as a new class of carbonic anhydrase isoforms I, II, IX, and XII inhibitors” (Journal of Enzyme Inhibition and Medicinal Chemistry, 2017)
Like-named read-outs stand apart in the source and are kept apart here.

Legend:
Assay in all cases: stopped-flow CO2 hydrase assay
Format in all cases: biochemical
hCA XII = molecular target: T1, hCA XII (Homo sapiens, UniProt O43570)
T1 construct: gene CA12; recombinant, obtained in-house as reported earlier
T1 sequence (O43570 25-354): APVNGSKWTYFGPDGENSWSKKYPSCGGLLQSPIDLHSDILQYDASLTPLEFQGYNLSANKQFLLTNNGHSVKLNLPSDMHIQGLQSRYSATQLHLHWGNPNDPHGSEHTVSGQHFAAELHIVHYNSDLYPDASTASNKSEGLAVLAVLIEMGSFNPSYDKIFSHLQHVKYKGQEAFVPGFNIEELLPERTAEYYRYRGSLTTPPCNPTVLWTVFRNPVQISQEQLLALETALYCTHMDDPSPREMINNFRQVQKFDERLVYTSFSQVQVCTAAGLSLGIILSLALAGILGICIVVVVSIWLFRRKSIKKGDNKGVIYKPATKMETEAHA
Description: stopped-flow CO2 hydrase assay on hCA XII

hCA II = molecular target: T2, hCA II (Homo sapiens, UniProt P00918)
T2 construct: gene CA2; recombinant, obtained in-house as reported earlier
Description: stopped-flow CO2 hydrase assay on hCA II

hCA I = molecular target: T3, hCA I (Homo sapiens, UniProt P00915)
T3 construct: gene CA1; recombinant, obtained in-house as reported earlier
T3 sequence (P00915 2-261): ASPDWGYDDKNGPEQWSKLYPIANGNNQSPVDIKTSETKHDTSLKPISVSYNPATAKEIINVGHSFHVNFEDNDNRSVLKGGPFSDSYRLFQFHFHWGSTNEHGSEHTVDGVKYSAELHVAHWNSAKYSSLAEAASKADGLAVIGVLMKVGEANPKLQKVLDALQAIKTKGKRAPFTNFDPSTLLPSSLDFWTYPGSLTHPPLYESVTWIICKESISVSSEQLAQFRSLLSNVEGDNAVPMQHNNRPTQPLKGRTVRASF
Description: stopped-flow CO2 hydrase assay on hCA I

hCA IX = molecular target: T4, hCA IX (Homo sapiens, UniProt Q16790)
T4 construct: gene CA9; recombinant, obtained in-house as reported earlier
Description: stopped-flow CO2 hydrase assay on hCA IX

[1] = pH […] Hepes […], […] Na2SO4, CO2 substrate, […] min preincubation at room temperature

| Ki (hCA XII) [nM] | Ki (hCA II) [nM] | Ki (hCA I) [nM] | Ki (hCA IX) [nM] | Ki (hCA II; [1]) [nM] | Ki (hCA I; [1]) [nM] | SMILES |
| --- | --- | --- | --- | --- | --- | --- |
| 6.3 | 2.1 | 286 | 8.6 |  |  | COc1ccc(/C=C/C(=O)/C=C/c2ccc(S(N)(=O)=O)cc2)cc1 [5b, 4-((1E,4E)-5-(4-methoxyphenyl)-3-oxopenta-1,4-dien-1-yl)benzenesulfonamide] |
| 8.1 |  | 704 | 8.4 | 0.89 |  | COc1ccc(OC)c(/C=C/C(=O)/C=C/c2ccc(S(N)(=O)=O)cc2)c1 [5d, 4-((1E,4E)-5-(2,5-dimethoxyphenyl)-3-oxopenta-1,4-dien-1-yl)benzenesulfonamide] |
| 7.4 | 0.87 | 904 | 2.4 |  |  | COc1cc(OC)c(/C=C/C(=O)/C=C/c2ccc(S(N)(=O)=O)cc2)c(OC)c1 [5g, 4-((1E,4E)-3-oxo-5-(2,4,6-trimethoxyphenyl)penta-1,4-dien-1-yl)benzenesulfonamide] |
| 25 | 8.8 | 595 | 7.8 |  |  | COc1cc(/C=C/C(=O)/C=C/c2ccc(S(N)(=O)=O)cc2)cc(OC)c1OC [5h, 4-((1E,4E)-3-oxo-5-(3,4,5-trimethoxyphenyl)penta-1,4-dien-1-yl)benzenesulfonamide] |
| 31.1 | 8.1 | 373 | 87.3 |  |  | NS(=O)(=O)c1ccc(/C=C/C(=O)/C=C/c2ccc(Cl)cc2)cc1 [5i, 4-((1E,4E)-5-(4-chlorophenyl)-3-oxopenta-1,4-dien-1-yl)benzenesulfonamide] |
| 68 | 8.2 | 246 | 61 |  |  | COc1ccc(/C=C/C(=O)/C=C/c2ccc(S(N)(=O)=O)cc2)c(F)c1 [5j, 4-((1E,4E)-5-(2-fluoro-4-methoxyphenyl)-3-oxopenta-1,4-dien-1-yl)benzenesulfonamide] |

Further lines, the compound ahead of its results:

| SMILES | Ki (hCA XII) [nM] | Ki (hCA II) [nM] | Ki (hCA I) [nM] | Ki (hCA IX) [nM] | Ki (hCA II; [1]) [nM] | Ki (hCA I; [1]) [nM] |
| --- | --- | --- | --- | --- | --- | --- |
| CC(C)Oc1ccc(/C=C/C(=O)/C=C/c2ccc(S(N)(=O)=O)cc2)cc1 [5a, 4-((1E,4E)-5-(4-isopropoxyphenyl)-3-oxopenta-1,4-dien-1-yl)benzenesulfonamide] | 6.1 | 7.9 | 417 | 2.3 |  |  |
| COc1ccc(/C=C/C(=O)/C=C/c2ccc(S(N)(=O)=O)cc2)c(OC)c1 [5c, 4-((1E,4E)-5-(2,4-dimethoxyphenyl)-3-oxopenta-1,4-dien-1-yl)benzenesulfonamide] | 7.4 | 4.7 | 848 | 7.5 |  |  |
| COc1ccc(/C=C/C(=O)/C=C/c2ccc(S(N)(=O)=O)cc2)cc1OC [5e, 4-((1E,4E)-5-(3,4-dimethoxyphenyl)-3-oxopenta-1,4-dien-1-yl)benzenesulfonamide] | 52.2 |  | 295 | 2.3 | 0.75 |  |
| COc1ccc(/C=C/C(=O)/C=C/c2ccc(S(N)(=O)=O)cc2)c(OC)c1OC [5f, 4-((1E,4E)-3-oxo-5-(2,3,4-trimethoxyphenyl)penta-1,4-dien-1-yl)benzenesulfonamide] | 71.8 | 3 |  | 2.4 |  | 192 |
